# What was measured:
# PylRS/tRNACUA pair = PylRS/tRNACUA pair (Methanosarcina mazei, UniProt Q8PWY1); assay: Dual luciferase reporter assay on ovary extract of flies fed amino acid; assay type: in vivo, D. melanogaster; set-up: expressed in transfected cells; host or cells: transgenic Drosophila melanogaster, ovaries (UAS-PylRS driven by nos-vp16-GAL4); conditions: flies fed 10 mM amino acid
# Procedure: Dual luciferase assay on ovary extract from 10 female flies expressing Triple-Rep-L in the presence or absence of 10 mM 1 or 10 mM 3. […] The error bars represent the standard deviation of 3 technical replicates from a single biological replicate. FIG. 10B: Site-specific incorporation of 3 (or 1) into GFP_TAG_mCherry-HA in flies expressing PylRS/PyltRNACUA. The full-length protein resulting from unnatural amino acid incorporation is detected by anti-HA western blot. FIG. 10C: Specific labelling of encoded 3 with tetrazine probes. Flies were fed with no amino acid, amino acid 1 (500 flies) or amino acid 3 (100 flies). […] The full-length protein containing the unnatural amino acid was immunoprecipitated from lysed ovaries with anti-GFP beads. The beads were labelled (4g, 4 μM, 200 μL, PBS, RT, 2 h) washed.
# Transgenic lines were created by P element insertion using a Drosophila embryo injection service (BestGene Inc.). Lines were generated using the following plasmids: pFT58 (Ala), pFT60 (Ser), pFT62 (Leu) and pFT63 (Met). nos-Gal4-VP16 (Bloomington 4937) and MS1096-Gal4 (Bloomington 8860) were used as Gal4 drivers. All flies were grown at 25° C. on standard Iberian medium. Flies were fed unnatural amino acids by mixing dried yeast with the appropriate concentration of amino acid (usually 10 mM) diluted in dH2O to make a paste. Ovaries were prepared from females that were grown on Iberian fly food supplemented with a yeast paste with or without the amino acid for a minimum of 48 hours. For proteome labelling experiments transgenic male flies of constructs FT58, FT60, FT62 and FT63 were crossed with nos-vp16-GAL4 virgins to generate FT58/nos-vp16-GAL4, FT60/nos-vp16-GAL4, FT62/nos-vp16-GAL4 and FT63/nos-vp16-GAL4 respectively.
# Ovaries from 10 females of Triple Rep-L flies recombined with nos-Gal4-VP16 fed 3, 1 or no amino acid were dissected in 100 μl 1× Passive lysis buffer and processed for luciferase assays as previously described^20.
# PylRS, PyltRNAUUU = assay: Time-dependent proteome incorporation of 3 via SORT-M in E. coli, detected with 4a; assay type: cell-based; conditions: AAA codon, detection with 4a
# Procedure: Chemically competent DH10B cells were transformed with two plasmids: pBKwtPylRS necessary for expression of PylRS, and pBAD_wtT4LMbPylTUUU plasmid that is required for expression of PyltRNAUUU. pBAD_wtT4L_MbPylTUUU plasmid also contains the gene for expression of T4 lysozyme that is downstream of arabinose-inducible promoter. After transformation, cells were recovered in 1 ml SOB medium for one hour at 37° C. prior to inoculation in 10 ml LB-KT (LB media with 50 μg ml^−1 kanamycin, and 25 μg tetracycline). The culture was incubated overnight (37° C., 250 rpm, 12 h) and subsequently diluted to an OD600˜0.3 in 30 mL LB-KT1/2 (LB media with 25 μg ml^−1 kanamycin, and 12.5 μg ml^−1 tetracycline) supplemented with 3 at different concentrations, 0, 0.1, 0.5 mM. The cultures was incubated (37° C., 250 rpm) for 1 h, when OD600 reached approximately 0.6. 2 ml culture aliquot was collected in a separate tube for each of three cultures. This is the pre-induction culture (lane labelled as 1 in the gel image). Subsequently arabinose was added at a final concentration of 0.2% (v/v) to induce expression of T4 lysozyme and culture aliquots of 2 mL were collected every hour (lanes labelled as 2, 3 and 4 corresponding to 1, 2 and 3 h culture collection after induction). […] Samples were analysed by 4-12% SDS-PAGE and fluorescent images were acquired using Typhoon Trio phosphoimager (GE Life Sciences) […]
# PylRS/tRNACUA pair, sequence (Q8PWY1 whole entry, the tested form may be a part): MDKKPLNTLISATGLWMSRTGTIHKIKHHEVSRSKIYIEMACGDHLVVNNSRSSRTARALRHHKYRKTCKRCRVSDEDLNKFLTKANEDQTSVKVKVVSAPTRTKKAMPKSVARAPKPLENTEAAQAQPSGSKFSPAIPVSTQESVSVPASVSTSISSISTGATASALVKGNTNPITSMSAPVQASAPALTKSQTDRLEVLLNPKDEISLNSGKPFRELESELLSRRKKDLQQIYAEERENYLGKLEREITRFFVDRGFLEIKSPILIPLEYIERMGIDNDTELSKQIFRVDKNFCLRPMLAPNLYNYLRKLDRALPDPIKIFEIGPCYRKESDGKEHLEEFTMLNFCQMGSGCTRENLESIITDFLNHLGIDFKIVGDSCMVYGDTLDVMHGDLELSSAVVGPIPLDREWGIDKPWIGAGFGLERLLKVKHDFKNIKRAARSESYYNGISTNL
structure (smiles),measurement,setting,value
"CC1=CC1COC(=O)NCCCC[C@H](N)C(=O)O (stereo partly drawn) [amino acid 3, N^ε-[((2-methylcycloprop-2-en-1-yl)methoxy)carbonyl]-L-lysine]",dual luciferase signal compared with 1,PylRS/tRNACUA pair,larger
same,luciferase signal dependent on amino acid addition,PylRS/tRNACUA pair,strong luciferase signal
same,time to substantial labelling after amino acid addition,"PylRS, PyltRNAUUU",≤ 1 h
